Data taken from ChEMBL document CHEMBL1137469, “(3R,4S)-4-(2,4,5-Trifluorophenyl)-pyrrolidin-3-ylamine inhibitors of dipeptidyl peptidase IV: synthesis, in vitro, in vivo, and X-ray crystallographic characterization” (Bioorg Med Chem Lett, 2007).

Tests used:
Dipeptidyl peptidase 4 = Dipeptidyl peptidase 4 (Homo sapiens, UniProt P27487)
Dipeptidyl peptidase 2 = Dipeptidyl peptidase 2 (Homo sapiens, UniProt Q9UHL4); assay: Inhibition of human recombinant DPP2
Dipeptidyl peptidase 3 = target: T1, Dipeptidyl peptidase 3 (Homo sapiens, UniProt Q9NY33); assay: Inhibition of DPP3
T1 sequence (Q9NY33 whole entry): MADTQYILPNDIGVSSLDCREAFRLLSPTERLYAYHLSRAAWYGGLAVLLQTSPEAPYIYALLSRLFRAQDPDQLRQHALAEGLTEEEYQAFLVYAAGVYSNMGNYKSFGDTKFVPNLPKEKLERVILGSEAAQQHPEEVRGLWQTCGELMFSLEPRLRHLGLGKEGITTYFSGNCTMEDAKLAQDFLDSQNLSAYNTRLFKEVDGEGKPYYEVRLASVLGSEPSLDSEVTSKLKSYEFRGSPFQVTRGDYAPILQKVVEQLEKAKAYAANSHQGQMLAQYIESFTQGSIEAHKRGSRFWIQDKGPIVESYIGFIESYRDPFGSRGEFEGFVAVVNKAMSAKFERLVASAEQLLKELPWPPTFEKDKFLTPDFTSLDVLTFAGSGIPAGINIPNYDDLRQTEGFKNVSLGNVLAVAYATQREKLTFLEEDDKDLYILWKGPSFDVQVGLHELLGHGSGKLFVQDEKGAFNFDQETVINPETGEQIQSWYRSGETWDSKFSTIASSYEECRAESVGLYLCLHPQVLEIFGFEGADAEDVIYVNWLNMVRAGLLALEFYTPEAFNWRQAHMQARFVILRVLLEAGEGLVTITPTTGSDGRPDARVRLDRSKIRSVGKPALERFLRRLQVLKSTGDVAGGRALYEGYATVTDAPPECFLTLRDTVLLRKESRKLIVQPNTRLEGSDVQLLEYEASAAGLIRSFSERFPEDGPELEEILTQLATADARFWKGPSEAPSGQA

[1] = Percent of unbound ligand in dog plasma; type: ADME, cell-free, Canis lupus familiaris
[2] = Plasma clearance in rat; type: ADME, organism-based
[3] = Plasma clearance in dog; type: ADME, organism-based, Canis lupus familiaris
[4] = Volume of distribution at steady state in rat plasma; type: ADME, organism-based; conditions: read-out: Vdss
[5] = Volume of distribution at steady state in dog plasma; type: ADME, organism-based, Canis lupus familiaris; conditions: read-out: Vdss
[6] = Half life in iv dosed rat plasma; type: ADME, organism-based
[7] = Half life in iv dosed dog plasma; type: ADME, organism-based, Canis lupus familiaris
[8] = Half life in po dosed rat plasma; type: ADME, organism-based
[9] = Oral bioavailability in rat plasma; type: ADME, organism-based

Dipeptidyl peptidase 4, sequence (P27487 whole entry): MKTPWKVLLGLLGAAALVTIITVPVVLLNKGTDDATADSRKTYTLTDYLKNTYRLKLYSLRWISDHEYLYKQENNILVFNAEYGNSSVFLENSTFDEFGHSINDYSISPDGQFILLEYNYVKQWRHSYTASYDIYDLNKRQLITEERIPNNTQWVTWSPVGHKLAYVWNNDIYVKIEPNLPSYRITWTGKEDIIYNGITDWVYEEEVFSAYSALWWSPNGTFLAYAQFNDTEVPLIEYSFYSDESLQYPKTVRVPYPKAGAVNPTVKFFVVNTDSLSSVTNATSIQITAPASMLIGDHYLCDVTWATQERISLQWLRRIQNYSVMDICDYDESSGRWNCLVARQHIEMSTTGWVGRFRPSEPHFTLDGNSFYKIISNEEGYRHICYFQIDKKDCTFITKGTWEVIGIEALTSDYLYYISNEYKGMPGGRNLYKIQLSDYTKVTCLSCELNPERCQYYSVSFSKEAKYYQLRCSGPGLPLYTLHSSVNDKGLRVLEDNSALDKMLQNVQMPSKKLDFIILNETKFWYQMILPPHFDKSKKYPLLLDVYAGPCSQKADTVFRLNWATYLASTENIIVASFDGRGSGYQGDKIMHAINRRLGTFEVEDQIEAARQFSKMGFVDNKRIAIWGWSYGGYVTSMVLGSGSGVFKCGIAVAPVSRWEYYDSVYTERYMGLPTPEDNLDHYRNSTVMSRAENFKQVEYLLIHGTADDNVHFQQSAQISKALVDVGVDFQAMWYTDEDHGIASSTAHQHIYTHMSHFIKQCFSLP

Row | IC50 (Dipeptidyl peptidase 4) [µM] | SMILES | other results
1 | > 3 | N[C@H]1CN(c2cnc3ccccc3n2)C[C@@H]1c1ccccc1 | 
2 | > 3 | N[C@H]1CN(c2ccc3ccccc3n2)C[C@@H]1c1ccccc1 | 
3 | > 3 | N#Cc1cccnc1N1C[C@H](c2ccccc2)[C@@H](N)C1 | 
4 | > 3 | N[C@H]1CN(c2cc(-c3ccccc3Cl)ncn2)C[C@@H]1c1ccccc1 | 
5 |  | N[C@H]1CN(c2cc(-c3ccccc3)ncn2)C[C@@H]1c1cc(F)c(F)cc1F | IC50 (Dipeptidyl peptidase 2): 18 µM
6 |  | N[C@H]1CN(c2cc(-c3cccc(F)c3)ncn2)C[C@@H]1c1cc(F)c(F)cc1F | IC50 (Dipeptidyl peptidase 2): 15 µM
7 |  | COc1ccc(-c2cc(N3C[C@H](c4cc(F)c(F)cc4F)[C@@H](N)C3)ncn2)cn1 | IC50 (Dipeptidyl peptidase 3): > 30 µM; IC50 (Dipeptidyl peptidase 2): 19 µM; fraction unbound [1]: 0.17; clearance [2]: 4.4 mL/min/kg; clearance [3]: 4.8 mL/min/kg; Vd [4]: 0.67 L/kg; Vd [5]: 1.9 L/kg; half-life [6]: 2.8 h; half-life [7]: 5.1 h; half-life [8]: 3.3 h; bioavailability [9]: 57%
8 | > 3 | Cn1cnc2c(N3C[C@H](c4ccccc4)[C@@H](N)C3)ncnc21 | 
9 | > 3 | N[C@H]1CN(c2cc(-c3ccc(O)cc3)ncn2)C[C@@H]1c1ccccc1 | 
10 | > 3 | N[C@H]1CN(c2cc(Cl)nc(-c3ccccc3)n2)C[C@@H]1c1ccccc1 | 
11 | > 3 | N[C@H]1CN(c2cc(-c3ccc(Cl)cc3)ncn2)C[C@@H]1c1ccccc1 | 
12 | > 3 | CC(=O)c1ccc(N2C[C@H](c3ccccc3)[C@@H](N)C2)nc1 | 
13 | > 3 | CC(C)c1ccc([C@@H]2CN(c3nc4c(cc3F)c(=O)c(C(=O)O)cn4C3CC3)C[C@@H]2N)cc1 (relative stereo) | 
14 | > 3 | COC(=O)c1ccc([C@@H]2CN(c3nc4c(cc3F)c(=O)c(C(=O)O)cn4C3CC3)C[C@@H]2N)cc1 (relative stereo) | 
15 | > 3 | COc1ccc([C@@H]2CN(c3nc4c(cc3F)c(=O)c(C(=O)O)cn4C3CC3)C[C@@H]2N)cc1 (relative stereo) | 
16 | > 3 | CN(C)c1ccc([C@@H]2CN(c3nc4c(cc3F)c(=O)c(C(=O)O)cn4C3CC3)C[C@@H]2N)cc1 (relative stereo) | 
17 | > 3 | N[C@H]1CN(c2nc3c(cc2F)c(=O)c(C(=O)O)cn3C2CC2)C[C@H]1c1ccc(O)cc1 (relative stereo) | 
18 | > 3 | Nc1ccc([C@@H]2CN(c3nc4c(cc3F)c(=O)c(C(=O)O)cn4C3CC3)C[C@@H]2N)cc1 (relative stereo) | 
